# In publication PMC8490825 (Frontiers in Molecular Biosciences, 2021):
# Like-named read-outs stand apart in the source and are kept apart here. Where a SMILES comes first, the peptide text is derived from it. Bridges are numbered along the chain shown (N, C = ends).
# Key:
# hNaV1.2 = hNaV1.2 (Homo sapiens, UniProt Q99250); test: cell-based; details: N = 3-6; SEM; read-out: IC50 ± SEM, NaV1.2
# hNaV1.1 = hNaV1.1 (Homo sapiens, UniProt P35498); test: cell-based; type: cell-based
# hNaV1.5 = hNaV1.5 (Homo sapiens, UniProt Q14524); test: cell-based; type: cell-based; details: for IC50: N = 3-4, read-out: IC50 ± SEM, NaV1.5
# hNaV1.4 = hNaV1.4 (Homo sapiens, UniProt P35499); test: cell-based; type: cell-based; details: for IC50: N = 4, read-out: IC50 ± SEM, NaV1.4
# Sequence of hNaV1.4 (P35499 whole entry, looked up): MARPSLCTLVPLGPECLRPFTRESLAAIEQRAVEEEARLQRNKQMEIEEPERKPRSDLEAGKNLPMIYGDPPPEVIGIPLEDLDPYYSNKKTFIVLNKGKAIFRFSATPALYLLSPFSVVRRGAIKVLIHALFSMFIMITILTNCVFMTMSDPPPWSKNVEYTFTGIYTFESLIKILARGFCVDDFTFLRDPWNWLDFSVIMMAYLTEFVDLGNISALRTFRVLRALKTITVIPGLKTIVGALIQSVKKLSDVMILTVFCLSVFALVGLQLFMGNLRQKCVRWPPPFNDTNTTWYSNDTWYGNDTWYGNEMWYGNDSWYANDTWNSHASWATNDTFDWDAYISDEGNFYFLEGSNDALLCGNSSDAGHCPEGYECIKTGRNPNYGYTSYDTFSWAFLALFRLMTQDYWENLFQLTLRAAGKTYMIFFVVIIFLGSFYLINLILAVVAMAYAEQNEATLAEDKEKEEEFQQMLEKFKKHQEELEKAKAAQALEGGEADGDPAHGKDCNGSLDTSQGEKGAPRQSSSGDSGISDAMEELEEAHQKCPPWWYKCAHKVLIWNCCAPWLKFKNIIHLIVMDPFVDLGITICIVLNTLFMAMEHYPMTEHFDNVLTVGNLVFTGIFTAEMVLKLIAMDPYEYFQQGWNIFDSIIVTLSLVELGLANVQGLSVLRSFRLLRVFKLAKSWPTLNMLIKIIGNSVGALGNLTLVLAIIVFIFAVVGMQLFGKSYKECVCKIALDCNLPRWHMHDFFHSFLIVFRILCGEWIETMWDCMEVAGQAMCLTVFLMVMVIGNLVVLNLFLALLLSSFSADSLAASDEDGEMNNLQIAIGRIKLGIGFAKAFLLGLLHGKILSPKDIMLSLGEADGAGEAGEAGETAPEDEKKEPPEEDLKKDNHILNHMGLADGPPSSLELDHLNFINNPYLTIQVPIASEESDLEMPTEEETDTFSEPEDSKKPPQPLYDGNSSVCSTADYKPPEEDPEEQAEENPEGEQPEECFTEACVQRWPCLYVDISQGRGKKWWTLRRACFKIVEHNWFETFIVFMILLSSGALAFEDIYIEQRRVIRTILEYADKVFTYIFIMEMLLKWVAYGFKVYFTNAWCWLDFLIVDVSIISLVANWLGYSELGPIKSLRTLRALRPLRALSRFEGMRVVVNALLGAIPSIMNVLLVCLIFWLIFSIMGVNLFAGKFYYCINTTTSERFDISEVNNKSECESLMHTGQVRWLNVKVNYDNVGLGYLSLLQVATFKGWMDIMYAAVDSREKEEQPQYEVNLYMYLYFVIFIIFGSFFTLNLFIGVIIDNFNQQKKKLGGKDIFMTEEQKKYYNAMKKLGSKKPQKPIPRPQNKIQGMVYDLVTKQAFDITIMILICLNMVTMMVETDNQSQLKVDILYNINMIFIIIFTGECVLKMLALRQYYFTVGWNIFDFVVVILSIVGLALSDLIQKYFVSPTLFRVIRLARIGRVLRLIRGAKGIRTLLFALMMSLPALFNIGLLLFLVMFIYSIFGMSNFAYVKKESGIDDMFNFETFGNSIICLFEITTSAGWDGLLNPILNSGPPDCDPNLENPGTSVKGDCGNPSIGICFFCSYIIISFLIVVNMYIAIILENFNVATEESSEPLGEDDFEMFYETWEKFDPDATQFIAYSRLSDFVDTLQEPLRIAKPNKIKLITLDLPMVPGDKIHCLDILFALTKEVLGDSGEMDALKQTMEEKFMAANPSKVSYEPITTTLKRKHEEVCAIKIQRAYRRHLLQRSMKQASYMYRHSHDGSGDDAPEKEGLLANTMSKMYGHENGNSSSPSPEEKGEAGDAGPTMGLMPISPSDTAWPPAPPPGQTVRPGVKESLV
# hNaV1.3 = hNaV1.3 (Homo sapiens, UniProt Q9NY46); test: cell-based; details: N = 3-4; SEM; read-out: IC50 ± SEM, NaV1.3
# hNaV1.7 [1] = target: T1, hNaV1.7 (Homo sapiens, UniProt Q15858); test: cell-based; type: cell-based
# T1 sequence (Q15858 whole entry, looked up): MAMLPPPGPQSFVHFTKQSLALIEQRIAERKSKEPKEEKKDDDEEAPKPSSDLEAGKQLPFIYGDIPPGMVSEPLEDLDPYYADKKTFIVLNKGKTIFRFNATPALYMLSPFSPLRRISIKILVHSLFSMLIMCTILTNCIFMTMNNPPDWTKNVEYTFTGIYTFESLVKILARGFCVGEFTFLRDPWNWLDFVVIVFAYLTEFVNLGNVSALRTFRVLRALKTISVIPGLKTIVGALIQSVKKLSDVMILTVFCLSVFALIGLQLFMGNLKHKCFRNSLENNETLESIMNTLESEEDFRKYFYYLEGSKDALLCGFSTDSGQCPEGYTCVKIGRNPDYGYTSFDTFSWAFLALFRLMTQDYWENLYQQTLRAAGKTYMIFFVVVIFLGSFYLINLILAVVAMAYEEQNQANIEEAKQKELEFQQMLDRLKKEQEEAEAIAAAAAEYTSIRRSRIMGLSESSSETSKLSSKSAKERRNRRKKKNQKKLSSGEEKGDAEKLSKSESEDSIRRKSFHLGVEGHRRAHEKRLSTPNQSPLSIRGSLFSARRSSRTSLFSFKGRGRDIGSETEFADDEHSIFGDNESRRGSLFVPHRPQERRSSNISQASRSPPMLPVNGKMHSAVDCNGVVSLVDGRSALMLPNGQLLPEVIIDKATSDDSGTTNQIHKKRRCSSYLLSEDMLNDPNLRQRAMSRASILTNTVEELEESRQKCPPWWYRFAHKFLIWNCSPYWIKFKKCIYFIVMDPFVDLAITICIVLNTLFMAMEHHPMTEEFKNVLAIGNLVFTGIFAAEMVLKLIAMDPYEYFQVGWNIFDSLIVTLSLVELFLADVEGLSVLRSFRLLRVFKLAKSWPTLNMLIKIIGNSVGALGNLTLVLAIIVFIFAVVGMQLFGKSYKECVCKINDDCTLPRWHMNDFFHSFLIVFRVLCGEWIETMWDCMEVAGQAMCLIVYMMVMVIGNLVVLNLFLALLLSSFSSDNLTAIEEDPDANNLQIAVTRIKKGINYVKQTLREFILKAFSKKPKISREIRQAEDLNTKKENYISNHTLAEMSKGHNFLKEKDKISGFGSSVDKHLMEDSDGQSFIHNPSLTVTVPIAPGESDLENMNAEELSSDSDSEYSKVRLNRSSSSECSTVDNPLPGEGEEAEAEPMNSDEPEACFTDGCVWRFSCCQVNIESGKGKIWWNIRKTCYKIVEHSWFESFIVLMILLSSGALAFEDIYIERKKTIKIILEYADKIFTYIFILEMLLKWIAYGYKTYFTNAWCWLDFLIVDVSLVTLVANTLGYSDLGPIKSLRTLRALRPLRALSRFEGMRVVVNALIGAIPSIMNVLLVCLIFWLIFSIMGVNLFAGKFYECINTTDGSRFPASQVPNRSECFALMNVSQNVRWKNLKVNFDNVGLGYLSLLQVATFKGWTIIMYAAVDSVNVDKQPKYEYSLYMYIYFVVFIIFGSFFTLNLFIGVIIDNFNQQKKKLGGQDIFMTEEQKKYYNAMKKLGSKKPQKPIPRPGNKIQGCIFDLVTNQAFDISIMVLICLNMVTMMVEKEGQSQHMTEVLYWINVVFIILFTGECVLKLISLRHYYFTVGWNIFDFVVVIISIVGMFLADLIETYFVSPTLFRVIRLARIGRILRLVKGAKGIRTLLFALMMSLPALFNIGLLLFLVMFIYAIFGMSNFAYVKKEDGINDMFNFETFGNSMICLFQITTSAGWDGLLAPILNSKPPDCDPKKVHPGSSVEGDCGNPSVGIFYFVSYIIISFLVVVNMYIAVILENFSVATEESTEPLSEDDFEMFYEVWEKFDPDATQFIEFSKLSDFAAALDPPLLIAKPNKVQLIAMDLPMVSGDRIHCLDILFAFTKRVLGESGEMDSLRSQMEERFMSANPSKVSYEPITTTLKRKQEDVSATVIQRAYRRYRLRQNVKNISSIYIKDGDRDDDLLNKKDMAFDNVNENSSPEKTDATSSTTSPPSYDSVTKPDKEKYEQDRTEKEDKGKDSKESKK
# hNaV1.6 = hNaV1.6 (Homo sapiens, UniProt Q9UQD0); test: cell-based; details: N = 4; SEM; read-out: IC50 ± SEM, NaV1.6
# hNaV1.7 [2] = target: T1, hNaV1.7; type: cell-based; details: SEM
# [3] = tested on: endogenous K+ currents from non-transfected HEK293 cells; type: cell-based
# [4] = tested on: rKV2.1/hNaV1.1 chimera containing the paddles S3–S4 from DII from NaV1.1; type: cell-based
# [5] = N = 4-5, SEM, read-out: IC50 ± SEM, NaV1.1
# [6] = N = 3-4, SEM, read-out: IC50 ± SEM, NaV1.7
structure (smiles),measurement,setting,value
"CC[C@H](C)[C@@H]1NC(=O)CNC(=O)[C@H](CC(C)C)NC(=O)[C@@H](NC(=O)CNC(=O)CN)CSSC[C@@H]2NC(=O)[C@@H]3CSSC[C@@H](C(=O)N[C@@H](CCCCN)C(=O)N[C@@H](Cc4c[nH]c5ccccc45)C(=O)N[C@@H](CCCCN)C(=O)N[C@@H](CC(C)C)C(=O)N[C@@H](Cc4c[nH]c5ccccc45)C(=O)O)NC(=O)[C@H](Cc4c[nH]c5ccccc45)NC(=O)[C@H](CCCNC(=N)N)NC(=O)[C@H](Cc4c[nH]cn4)NC(=O)[C@H](CCCCN)NC(=O)[C@H](CCCCN)NC(=O)[C@H](CO)NC(=O)[C@H](CSSC[C@H](NC(=O)[C@H](CO)NC(=O)[C@H](CO)NC(=O)[C@H](C)NC1=O)C(=O)N[C@@H](CC(=O)O)C(=O)N1CCC[C@H]1C(=O)N[C@@H](CCC(=O)O)C(=O)N[C@@H](CC(N)=O)C(=O)N[C@@H](CC(=O)O)C(=O)N[C@@H](CCCCN)C(=O)N3)NC(=O)[C@H](C(C)C)NC(=O)[C@H](CCCNC(=N)N)NC(=O)[C@H](CC(N)=O)NC(=O)[C@H](Cc1ccc(O)cc1)NC2=O [Tap1a-OPT2] (H-GGCLGIASSCDPENDKCCYNRVCSKKHRWCKWKLW-OH; disulfide 3-18, 10-23, 17-30)",IC50,hNaV1.2,0.043 ± 0.005 µM
same,IC50,hNaV1.1; [5],0.054 ± 0.009 µM
same,"inhibition of NaV1.5, in words",hNaV1.5,did not significantly inhibit
same,IC50,hNaV1.5,> 1 µM
same,"inhibition of NaV1.4, in words",hNaV1.4,did not significantly inhibit
same,loss of activity for NaV1.4 compared to Tap1a-OPT1,hNaV1.4,at least 10 fold
same,IC50,hNaV1.4,> 1 µM
same,IC50,hNaV1.3,0.096 ± 0.009 µM
same,loss of activity for NaV1.7 compared to Tap1a-OPT1,hNaV1.7 [1],2 fold
same,IC50,hNaV1.7 [1]; [6],0.035 ± 0.002 µM
same,IC50,hNaV1.6,0.075 ± 0.011 µM
"CC[C@H](C)[C@@H]1NC(=O)CNC(=O)[C@H](CC(C)C)NC(=O)[C@@H](NC(=O)CNC(=O)CN)CSSC[C@@H]2NC(=O)[C@@H]3CSSC[C@@H](C(=O)N[C@@H](CCCCN)C(=O)N[C@@H](Cc4c[nH]c5ccccc45)C(=O)N[C@@H](CCCCN)C(=O)N[C@@H](CC(C)C)C(=O)N[C@@H](Cc4c[nH]c5ccccc45)C(=O)O)NC(=O)[C@H](Cc4c[nH]c5ccccc45)NC(=O)[C@H](CCCNC(=N)N)NC(=O)[C@H](Cc4c[nH]cn4)NC(=O)[C@H](CCCCN)NC(=O)[C@H](CCCCN)NC(=O)[C@H](CO)NC(=O)[C@H](CSSC[C@H](NC(=O)[C@H](CO)NC(=O)[C@H](CO)NC(=O)[C@H](Cc4ccccc4)NC1=O)C(=O)N[C@@H](CC(=O)O)C(=O)N1CCC[C@H]1C(=O)N[C@@H](CCC(=O)O)C(=O)N[C@@H](CC(N)=O)C(=O)N[C@@H](CC(=O)O)C(=O)N[C@@H](CCCCN)C(=O)N3)NC(=O)[C@H](C(C)C)NC(=O)[C@H](CCCNC(=N)N)NC(=O)[C@H](CC(N)=O)NC(=O)[C@H](Cc1ccc(O)cc1)NC2=O [Tap1a-OPT1] (H-GGCLGIFSSCDPENDKCCYNRVCSKKHRWCKWKLW-OH; disulfide 3-18, 10-23, 17-30)",IC50,hNaV1.2,0.005 ± 0.001 µM
same,IC50,hNaV1.1; [5],0.017 ± 0.003 µM
same,IC50,hNaV1.5,> 1 µM
same,"Kon observed, hNaV1.7",hNaV1.7 [2],8.60 ± 1.7 × 10^−3 s^−1
same,IC50,hNaV1.4; SEM,0.1 ± 0.019 µM
same,IC50,hNaV1.3,0.006 ± 0.0005 µM
same,IC50,hNaV1.7 [1]; [6],0.003 ± 0.0007 µM
same,IC50,hNaV1.6,0.0046 ± 0.0023 µM
COC(=O)C1=C(C)NC(C)=C(C(=O)OC)C1c1ccccc1[N+](=O)[O-] [nifedipine],effect on endogenous potassium currents of non-transfected HEK293 cells,[3],inhibited
same,effect on potassium currents of cells transfected with the chimera KV2.1/NaV1.1 VSDII,[4],sensitive
"CSCC[C@@H]1NC(=O)CNC(=O)[C@H](CC(C)C)NC(=O)[C@@H](NC(=O)[C@H](CC(=O)O)NC(=O)[C@H](CC(=O)O)NC(=O)CN)CSSC[C@@H]2NC(=O)[C@@H]3CSSC[C@@H](C(=O)N[C@@H](CCCCN)C(=O)N[C@@H](Cc4ccc(O)cc4)C(=O)N[C@@H](C)C(=O)N[C@@H](CC(C)C)C(=O)N[C@@H](Cc4c[nH]c5ccccc45)C(=O)O)NC(=O)[C@H](Cc4c[nH]c5ccccc45)NC(=O)[C@H](CCC(N)=O)NC(=O)[C@H](CC(=O)O)NC(=O)[C@H](CCCCN)NC(=O)[C@H](CCCNC(=N)N)NC(=O)[C@H](CO)NC(=O)[C@H](CSSC[C@H](NC(=O)[C@H](CO)NC(=O)[C@H](CO)NC(=O)[C@H](Cc4ccccc4)NC1=O)C(=O)N[C@@H](CC(=O)O)C(=O)N1CCC[C@H]1C(=O)N[C@@H](CC(N)=O)C(=O)N[C@@H](CC(N)=O)C(=O)N[C@@H](CC(=O)O)C(=O)N[C@@H](CCCCN)C(=O)N3)NC(=O)[C@H](CCCCN)NC(=O)[C@H](CCCNC(=N)N)NC(=O)[C@H](CC(N)=O)NC(=O)[C@@H]1CCCN1C2=O [Peptide Q33A] (H-GDDCLGMFSSCDPNNDKCCPNRKCSRKDQWCKYALW-OH; disulfide 4-19, 11-24, 18-31)",IC50,hNaV1.1,0.163 µM
same,IC50,hNaV1.7 [1],0.099 µM
"CSCC[C@@H]1NC(=O)CNC(=O)[C@H](CC(C)C)NC(=O)[C@@H](NC(=O)[C@H](CC(=O)O)NC(=O)[C@H](CC(=O)O)NC(=O)CN)CSSC[C@@H]2NC(=O)[C@@H]3CSSC[C@@H](C(=O)N[C@@H](CCCCN)C(=O)N[C@@H](C)C(=O)N[C@@H](CCC(N)=O)C(=O)N[C@@H](CC(C)C)C(=O)N[C@@H](Cc4c[nH]c5ccccc45)C(=O)O)NC(=O)[C@H](Cc4c[nH]c5ccccc45)NC(=O)[C@H](CCC(N)=O)NC(=O)[C@H](CC(=O)O)NC(=O)[C@H](CCCCN)NC(=O)[C@H](CCCNC(=N)N)NC(=O)[C@H](CO)NC(=O)[C@H](CSSC[C@H](NC(=O)[C@H](CO)NC(=O)[C@H](CO)NC(=O)[C@H](Cc4ccccc4)NC1=O)C(=O)N[C@@H](CC(=O)O)C(=O)N1CCC[C@H]1C(=O)N[C@@H](CC(N)=O)C(=O)N[C@@H](CC(N)=O)C(=O)N[C@@H](CC(=O)O)C(=O)N[C@@H](CCCCN)C(=O)N3)NC(=O)[C@H](CCCCN)NC(=O)[C@H](CCCNC(=N)N)NC(=O)[C@H](CC(N)=O)NC(=O)[C@@H]1CCCN1C2=O [Peptide Y32A] (H-GDDCLGMFSSCDPNNDKCCPNRKCSRKDQWCKAQLW-OH; disulfide 4-19, 11-24, 18-31)",IC50,hNaV1.1,> 1 µM
same,IC50,hNaV1.7 [1],> 1 µM
"CC(C)C[C@@H]1NC(=O)[C@@H](NC(=O)[C@H](CC(=O)O)NC(=O)[C@H](CC(=O)O)NC(=O)CN)CSSC[C@@H]2NC(=O)[C@@H]3CSSC[C@@H](C(=O)N[C@@H](CCCCN)C(=O)N[C@@H](Cc4ccc(O)cc4)C(=O)N[C@@H](CCC(N)=O)C(=O)N[C@@H](CC(C)C)C(=O)N[C@@H](Cc4c[nH]c5ccccc45)C(=O)O)NC(=O)[C@H](Cc4c[nH]c5ccccc45)NC(=O)[C@H](CCC(N)=O)NC(=O)[C@H](CC(=O)O)NC(=O)[C@H](CCCCN)NC(=O)[C@H](CCCNC(=N)N)NC(=O)[C@H](CO)NC(=O)[C@H](CSSC[C@H](NC(=O)[C@H](CO)NC(=O)[C@H](CO)NC(=O)[C@H](Cc4ccccc4)NC(=O)[C@H](C)NC(=O)CNC1=O)C(=O)N[C@@H](CC(=O)O)C(=O)N1CCC[C@H]1C(=O)N[C@@H](CC(N)=O)C(=O)N[C@@H](CC(N)=O)C(=O)N[C@@H](CC(=O)O)C(=O)N[C@@H](CCCCN)C(=O)N3)NC(=O)[C@H](CCCCN)NC(=O)[C@H](CCCNC(=N)N)NC(=O)[C@H](CC(N)=O)NC(=O)[C@@H]1CCCN1C2=O [Peptide M6A] (H-GDDCLGAFSSCDPNNDKCCPNRKCSRKDQWCKYQLW-OH; disulfide 4-19, 11-24, 18-31)",IC50,hNaV1.1,> 1 µM
same,IC50,hNaV1.7 [1],> 1 µM
"CSCC[C@@H]1NC(=O)CNC(=O)[C@H](CC(C)C)NC(=O)[C@@H](NC(=O)[C@H](CC(=O)O)NC(=O)[C@H](CC(=O)O)NC(=O)CN)CSSC[C@@H]2NC(=O)[C@@H]3CSSC[C@@H](C(=O)N[C@@H](CCCCN)C(=O)N[C@@H](Cc4ccc(O)cc4)C(=O)N[C@@H](CCC(N)=O)C(=O)N[C@@H](CC(C)C)C(=O)N[C@@H](Cc4c[nH]c5ccccc45)C(=O)O)NC(=O)[C@H](Cc4c[nH]c5ccccc45)NC(=O)[C@H](CCC(N)=O)NC(=O)[C@H](CC(=O)O)NC(=O)[C@H](CCCCN)NC(=O)[C@H](CCCNC(=N)N)NC(=O)[C@H](CO)NC(=O)[C@H](CSSC[C@H](NC(=O)[C@H](CO)NC(=O)[C@H](CO)NC(=O)[C@H](C)NC1=O)C(=O)N[C@@H](CC(=O)O)C(=O)N1CCC[C@H]1C(=O)N[C@@H](CC(N)=O)C(=O)N[C@@H](CC(N)=O)C(=O)N[C@@H](CC(=O)O)C(=O)N[C@@H](CCCCN)C(=O)N3)NC(=O)[C@H](CCCCN)NC(=O)[C@H](CCCNC(=N)N)NC(=O)[C@H](CC(N)=O)NC(=O)[C@@H]1CCCN1C2=O [Peptide F7A] (H-GDDCLGMASSCDPNNDKCCPNRKCSRKDQWCKYQLW-OH; disulfide 4-19, 11-24, 18-31)",IC50,hNaV1.1,> 1 µM
same,"inhibition of NaV1.1, in words",hNaV1.1,completely lost its inhibition
same,IC50,hNaV1.7 [1],> 1 µM
same,"inhibition of NaV1.7, in words",hNaV1.7 [1],completely lost its inhibition
